# Assay results published in patent US10562848B2, “Inhibitors of TNF superfamily costimulatory interactions and methods for uses of the same” (UNIVERSITY OF MIAMI, priority 2015, dated 2020).
# Where two headings read alike, the source gives them in different places.
# Assays:
# [1] = system: CD40L-induced proliferation of human CD19+ B cells; assay: Inhibition of CD40L-induced human CD19+ B-cell proliferation (BrdU); assay type: cell-based; conditions: for IC50: B-cell
# Method: Because CD40 stimulation is an important signal for B cell proliferation, soluble CD40L can concentration-dependently induce the proliferation of human B cells.
# Inhibition of cell proliferation was determined in freshly isolated human CD19^+ B cells using the colorimetric cell proliferation ELISA BrdU kit from Roche Applied Science (Indianapolis, Ind.). B cells were isolated from the PBMC as follows. Briefly, cells were washed three times with medium (RPMI 1640) and incubated for 20 min at 4° C. with 20 μL/10^7 cells of anti-CD19 Microbeads (Miltenyi Biotech, Bergisch Gladbach, Germany), according to the MiniMacs protocol (Miltenyi Biotech). Cells were then purified using magnetic columns. […] Cells were cultured in 96 wells plates (100 μL/well) at a cell density of 2×10^5 cells/mL in IMDM medium supplemented with 5% FBS, 100 U/mL penicillin, streptomycin 100 μg/mL, insulin-transferrin-selenium-G (all materials from Invitrogen, San Diego, Calif.) and 10 […] (R&D Systems). […] After 48 h, BrdU labeling solution was added as recommended, and cells were cultivated for another 48 h. Detection of incorporated BrdU was carried out following the instructions of the ELISA BrdU kit.
# Data are average±SD for n=3 independent experiments with triplicates for each condition using a standard BrdU assay (Roche).
# [2] = system: CD40L-induced AID activation in human B cells; assay: Inhibition of CD40L-induced human B-cell function (AID activation, Ds-Red reporter, flow cytometry); assay type: cell-based; conditions: for IC50: Homo sapiens, B-cell; for inhibition of CD40L-induced human B-cell function, AID activation (in words): human B cells, flow cytometry
# Method: Activities in blocking CD40L-induced effects were assessed in a human B cell functional assay that quantitates B-cell function by measuring AID activation via a downstream fluorescent marker using flow cytometry. Activation-induced cytidine deaminase (AID) is necessary for both class switch recombination (CSR) and somatic hypermutation (SHM) of Ig genes, which are important for the generation of high-affinity antibodies and robust humoral immune response (see Frasca et al., Methods Mol Biol 1343:107-114 (2015)). AID is encoded by the aicda gene that is exclusively expressed in B cells and is necessary for opening the DNA molecule in the switch (S) regions in order to allow CSR. […] To further validate the activity of the present compounds, an aicda-lentiviral construct containing the promoter and enhancer region of aicda fused to the reporter Ds-Red was generated and used to transfect human B cells isolated from healthy donors. In these cells, regulation of AID expression through CD40-CD40L signaling following incubation at different conditions were evaluated by Ds-Red level assessed via flow cytometry.
# B cells were isolated using anti-CD19 Microbeads (Miltenyi Biotech) from PBMC collected from healthy donors, and they were purified using magnetic columns. These B cells were than transfected with an aicda-DsRed vector using a lentiviral protocol, 1.25×10^5 cells/mL of transfected B cells were stimulated with IL-4 at 0.2 μg/mL and CD40 ligand at 0.2 μg/mL in IMDM media with 10% FBS. In addition, various concentrations of candidate compounds diluted in the same media were added along with the described condition above. Also, 1 μg/ml of CpG was used as positive control for activation. After culture for 2 days at 37° C. and 5% CO2, B cells were collected, and AID activation level as represented by the level of Ds-Red expression was assessed by flow cytometry using BD LSRFortessa cell analyzer.
# These are important results as they were obtained in freshly isolated human B cells, a model particularly relevant for autoimmune diseases, and they assess effects on function not just proliferation or viability.
# [3] = system: Balb/c skin grafts in C57BL/6 mice; assay: Skin allograft survival model; assay type: in vivo, mouse; conditions: CTLA4-Ig plus 21045 30 mg/kg daily s.c. in 20% HPβCD
# Text: Full-thickness ear skins from donor mice (Balb/c, Jackson Laboratory; Bar Harbor, Me.) were transplanted onto the dorsal thorax of recipient mice (C57BL/6, Jackson Laboratory) by placing them on ˜1 cm diameter graft beds and securing with bandages.
# [4] = 48 h, read-out: IC50, inhibition of CD40L-induced AID activation
SMILES,inhibition of CD40L-induced human CD19+ B-cell proliferation (in words) [1],"IC50 [2, 4]",IC50 ([2]; read-out: IC50 B Cell),"inhibition of CD40L-induced human B-cell function, AID activation (in words) [2]",IC50 [1],mean survival time (MST) of skin grafts [3]
"O=C(Nc1ccc(-c2ccc(C(=O)Nc3cccc4cccc(S(=O)(=O)O)c34)cc2)cc1)c1ccc([N+](=O)[O-])cc1 [Compound 21041, 8-[(4′-[4-nitrobenzamido]biphenyl-4-yl-carbonyl)amino]naphthalene-1-sulfonic acid]",concentration-dependent inhibition,13.2 µM,13.2 µM,concentration-dependent inhibition,–,–
COC(=O)c1ccc(C(=O)Nc2ccc(-c3ccc(C(=O)Nc4cccc5cccc(S(=O)(=O)O)c45)cc3)cc2)cc1 [Compound 21045],concentration-dependent inhibition,4.5 µM,4.5 µM,concentration-dependent inhibition,~20 µM,15 days
O=C(Nc1ccc(-c2ccc(C(=O)Nc3ccc(C(=O)O)c4ccccc34)cc2)cc1)c1ccc([N+](=O)[O-])cc1 [Compound 25441],concentration-dependent inhibition,15.9 µM,15.9 µM,concentration-dependent inhibition,~20 µM,–
